Legend:
Bax = experiment: Western blot, Bax expression; type: cell-based, human; conditions: HCT116, 10 μM, 24 h
Procedure: The Bcl-2 protein family (including the anti-apoptotic protein Bcl-2 and the pro-apoptotic protein Bax) is a group of key apoptotic proteins that play an important role in the regulation of apoptosis ([Han et al., 2013]; [Zhang and Saghatelian, 2013]; [Zheng et al., 2021]). HCT116 cells were treated with different concentrations (2.5, 5, and 10 μM) of E to detect the expression of Bax and Bcl-2 proteins.
(§1) FIGURE 7 Effect of compound E on the levels of Bax, and Bcl-2 in HCT116 cells. Cells were pretreated with the various concentrations of compound E (2.5, 5 and 10 μM) for 24 h. The expression of Bax, and Bcl-2 were analyzed by Western blot. ***p < 0.001, **p < 0.01, *p < 0.05 vs. control group. The error bars represent the mean ± SD for three independent experiments.
HCT116 cells were cultured with different concentrations of compound E for 24 h. Then, the floating cells were collected and washed twice with ice-cold PBS. Add cold RIPA buffer. After the cells were lysed on ice for 20 min, the lysate was centrifuged at 12,000 rpm for 15 min at 4°C. The BCA method determines the protein concentration. Separated by SDS/PAGE electrophoresis and transferred to a nitrocellulose filter membrane for Western blot analysis. The membrane was blocked with PBS containing 5% skim milk at room temperature for 2 h. […] The protein is detected by electrochemiluminescence (Bio-Rad, CA, United State).

JNK = experiment: Western blot, MAPK signaling pathway: JNK; type: cell-based, human; conditions: HCT116, 10 μM, 24 h
From the text: (§2) Extracellular signal-regulated kinases are the most closely related MAPK. MAPK, a family of serine/threonine protein kinases, is also an important transmitter of signaling from the cell surface to the nucleus, and it is involved in the regulation of many physiological processes, including apoptosis ([Bian et al., 2021]). The MAPK pathway has been implicated in regulating tumor angiogenesis, proliferation, metastasis and invasion ([Ko et al., 2017]). MAPK family is mainly composed of ERK, p38 and JNK subfamily.
as §1, with “9” for “7”, “[…]” for “the levels of Bax, and Bcl-2”, “phospho-ERK, ERK, phospho-JNK, JNK, phospho-p38, p38” for “Bax, and Bcl-2”
(§3) HCT116 cells were cultured with different concentrations of compound E for 24 h. Then, the floating cells were collected and washed twice with ice-cold PBS. Add cold RIPA buffer. After the cells were lysed on ice for 20 min, the lysate was centrifuged at 12,000 rpm for 15 min at 4°C. The BCA method determines the protein concentration. […] The protein is detected by electrochemiluminescence (Bio-Rad, CA, United State).

ERK = experiment: Western blot, MAPK signaling pathway: ERK; type: cell-based, human; conditions: HCT116, 10 μM, 24 h
From the text: as §2
as §1, with “9” for “7”, “[…]” for “the levels of Bax, and Bcl-2”, “phospho-ERK, ERK, phospho-JNK, JNK, phospho-p38, p38” for “Bax, and Bcl-2”
as §3

[1] = Stability under pharmacological experimental conditions (RPMI 1640 medium, liquid phase detection); type: physicochemical
Procedure: Experimental method: Samples A-E were prepared and detected by liquid phase. Details are as follows.
A: The purity of compound E was detected by liquid phase, and the peak time of compound E was judged.
B: Liquid detection RPMI 1640 medium
C: Compound E was dissolved in the RPMI 1640 medium and detected by liquid phase.
D: Compound E was dissolved in the RPMI 1640 medium and placed in the incubator for 24 hours before detection by liquid phase.
E: Compound E was dissolved in the RPMI 1640 medium and placed in the incubator for 48 hours before detection by liquid phase.

HCT116 cells = experiment: H&E staining of morphological changes; type: cell-based, human; conditions: HCT116, 2.5, 5, 10 μM, 24 h
Procedure: Induction of apoptosis is the mechanism of action of many anti-proliferative drugs. When cells undergo apoptosis, they generally also undergo morphological changes ([Liu et al., 2009]). Therefore, we used H&E staining to assess morphological changes in the cells.
FIGURE 5 Cell morphological alterations and nuclear changes associated with HCT116 cells after incubation with varying concentrations E (0, 2.5, 5, 10 μM) for 24 h were assessed by staining with H&E and visualized by microscopy.

## CC1(C)CC[C@]2(C(=O)OCCn3nnnc3-c3ccccc3)[C@H](O)C[C@]3(C)C(=CC[C@@H]4[C@@]5(C)CC[C@H](O)[C@@](C)(C=O)[C@@H]5CC[C@]43C)[C@@H]2C1 [Compound E, 2-(5-phenyl-1H-tetrazol-1-yl)ethyl (4aR,5R,6aS,6bR,8aR,9S,10S,12aR,12bR,14bS)-9-formyl-5,10-dihydroxy-2,2,6a,6b,9,12a-hexamethyl-1,3,4,5,6,6a,6b,7,8,8a,9,10,11,12,12a,12b,13,14b-octadecahydropicene-4a (2H)-carboxylate]
Bax
  expression of Bax: significantly increased
JNK
  phosphorylation level of JNK: down-regulated
ERK
  phosphorylation level of ERK: down-regulated
[1]; after 24 hours in incubator
  content of compound E (HPLC peak): 20.495%
[1]; after 48 hours in incubator
  content of compound E (HPLC peak): 19.557%
[1]; check directly/0 hours
  content of compound E (HPLC peak): 20.461%
[1]; incubator, up to 48 hours
  stability under pharmacological experimental conditions: high stability
HCT116 cells
  morphological changes (H&E staining): significant apoptotic morphological changes
